Experimental data as given in PubChem BioAssay (NCI).
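The compound was tested at five concentrations on cells cultured in 96-well plates, with a 48-hour exposure period. Here, GI50 denotes the concentration required for 50% inhibition of growth. At the TGI there is no net growth.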

How the values were obtained:
Assay in all cases: DTP human tumour cell line panel, 48 h
[1] = system: NCI-H226 lung
[2] = system: NCI-H23 lung
[3] = system: NCI-H460 lung
[4] = system: NCI-H522 lung
[5] = system: NCI/ADR-RES ovarian
[6] = system: OVCAR-3 ovarian
[7] = system: OVCAR-4 ovarian
[8] = system: OVCAR-5 ovarian
[9] = system: OVCAR-8 ovarian
[10] = system: PC-3 prostate
[11] = system: RPMI-8226 leukemia
[12] = system: SF-268 CNS
[13] = system: SF-295 CNS
[14] = system: SF-539 CNS
[15] = system: SK-MEL-2 melanoma
[16] = system: SK-MEL-28 melanoma
[17] = system: SK-MEL-5 melanoma
[18] = system: SK-OV-3 ovarian
[19] = system: SN12C renal
[20] = system: SNB-19 CNS
[21] = system: SNB-75 CNS
[22] = system: SR leukemia
[23] = system: SW-620 colon
[24] = system: T-47D breast
[25] = system: TK-10 renal
[26] = system: U251 CNS
[27] = system: UACC-257 melanoma
[28] = system: UACC-62 melanoma
[29] = system: UO-31 renal

## O=c1n(CC2CO2)c(=O)n(CC2CO2)n1CC1CO1 (configuration not stated)
[1]
  GI50: 40.6 µM
  TGI: > 100 µM
[2]
  GI50: 22.7 µM
  TGI: > 100 µM
[3]
  GI50: 0.416 µM
  TGI: 30.8 µM
[4]
  GI50: 12.8 µM
  TGI: > 49.2 µM
[5]
  GI50: 19.5 µM
  TGI: > 100 µM
[6]
  GI50: 13.7 µM
  TGI: > 55.5 µM
[7]
  GI50: 19.2 µM
  TGI: > 85 µM
[8]
  GI50: 63.1 µM
  TGI: > 100 µM
[9]
  GI50: 27.2 µM
  TGI: > 100 µM
[10]
  GI50: 29.2 µM
  TGI: > 100 µM
[11]
  GI50: 13.6 µM
  TGI: > 57.8 µM
[12]
  GI50: 15.7 µM
  TGI: > 100 µM
[13]
  GI50: 3.65 µM
  TGI: > 100 µM
[14]
  GI50: 4.89 µM
  TGI: > 54.3 µM
[15]
  GI50: > 73.5 µM
  TGI: > 100 µM
[16]
  GI50: > 53.1 µM
  TGI: > 100 µM
[17]
  GI50: 14.7 µM
  TGI: > 79.9 µM
[18]
  GI50: 8.37 µM
  TGI: > 80.2 µM
[19]
  GI50: 9.03 µM
  TGI: > 100 µM
[20]
  GI50: 14.2 µM
  TGI: > 100 µM
[21]
  GI50: 15.8 µM
  TGI: > 100 µM
[22]
  TGI: > 100 µM
[23]
  GI50: 22.5 µM
  TGI: > 100 µM
[24]
  GI50: 6.64 µM
  TGI: > 100 µM
[25]
  GI50: 27.9 µM
  TGI: > 100 µM
[26]
  GI50: 10.9 µM
  TGI: > 100 µM
[27]
  GI50: 13 µM
  TGI: 95.6 µM
[28]
  GI50: 6.51 µM
  TGI: > 64.1 µM
[29]
  GI50: 7.86 µM
  TGI: > 76.2 µM
